Data on 27 compounds can be found in ChEMBL document CHEMBL2010716, “Structure based design of an in vivo active hydroxamic acid inhibitor of P. aeruginosa LpxC” (Bioorg Med Chem Lett, 2012).

One may read the IC50 as the concentration that gives 50% inhibition. A lower IC50 goes with greater potency. The term MIC denotes the lowest concentration that inhibits growth of the organism. Broadly, the half-life is the time needed for the level to fall by half in the phase considered. High values mean slow decline, low ones rapid decline. A word on the Ki: it is a measure of affinity in units of concentration, obtained from inhibition or displacement.

Values after ≈ are worked out from the molar mass of the structure shown. Active and inactive are the calls of the source. Where only a bound is given, the exact number is not on record here.

The target in data set [1] is T1, UDP-3-O-acyl-N-acetylglucosamine deacetylase (Pseudomonas aeruginosa (strain ATCC 15692 / PAO1 / 1C / PRS 101 / LMG12228), UniProt P47205).
T1 sequence (P47205 whole entry): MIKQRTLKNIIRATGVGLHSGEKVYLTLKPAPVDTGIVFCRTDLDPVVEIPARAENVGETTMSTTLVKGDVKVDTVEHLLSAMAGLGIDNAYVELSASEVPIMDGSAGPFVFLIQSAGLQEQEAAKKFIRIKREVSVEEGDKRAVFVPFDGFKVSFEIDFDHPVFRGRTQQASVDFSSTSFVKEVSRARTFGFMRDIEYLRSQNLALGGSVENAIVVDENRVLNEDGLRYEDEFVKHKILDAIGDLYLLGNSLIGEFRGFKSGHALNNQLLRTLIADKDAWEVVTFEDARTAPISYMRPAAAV
The data set is described as follows: Inhibition of Pseudomonas aeruginosa LpxC.

Data set [2] has as its system Pseudomonas aeruginosa. The data set is described as follows: Antibacterial activity against efflux pump knock-down Pseudomonas aeruginosa PAO280 by twofold broth microdilution technique. The class given is functional. In general terms: Dilution methods test growth across graded concentrations, often in twofold steps.
Data set [3] deals with Pseudomonas aeruginosa. The data set is described as follows: Antibacterial activity against wild type Pseudomonas aeruginosa UI-18 by NCCLS method. The class given is functional.
Data set [4] is described as follows: Half life in human hepatocytes. The class given is ADME, cell-based, Liver, Hepatocyte.
Data set [5] can be described thus: Kinetic solubility of the compound at pH 6.5. Type of data set: physicochemical. As to conditions: buffer, read-out: Kinetic_solubility.
Data set [6] deals with Pseudomonas aeruginosa. The data set is described as follows: Antibacterial activity against wild type Pseudomonas aeruginosa. Type of data set: functional.
A short description of data set [7]: Kinetic solubility of the compound. Type of data set: physicochemical. Conditions: read-out: Kinetic_solubility.
Data set [8] can be described thus: Half life in rat hepatocytes. Type of data set: ADME, cell-based, Liver, Hepatocyte.
The test system of data set [9] is Pseudomonas aeruginosa. The data set is described as follows: Antibacterial activity against wild type Pseudomonas aeruginosa UI-18 infected in iv dosed mouse. Type of data set: functional. Conditions: UI-18, iv, read-out: PD50.
For data set [10], the system named is Pseudomonas aeruginosa. The data set is described as follows: Antibacterial activity against wild type Pseudomonas aeruginosa UI-18 infected in sc dosed mouse. Type of data set: functional, organism-based.
For data set [11], the target named is T2, UDP-3-O-acyl-N-acetylglucosamine deacetylase (Escherichia coli K-12, UniProt P0A725).
T2 sequence (P0A725 whole entry): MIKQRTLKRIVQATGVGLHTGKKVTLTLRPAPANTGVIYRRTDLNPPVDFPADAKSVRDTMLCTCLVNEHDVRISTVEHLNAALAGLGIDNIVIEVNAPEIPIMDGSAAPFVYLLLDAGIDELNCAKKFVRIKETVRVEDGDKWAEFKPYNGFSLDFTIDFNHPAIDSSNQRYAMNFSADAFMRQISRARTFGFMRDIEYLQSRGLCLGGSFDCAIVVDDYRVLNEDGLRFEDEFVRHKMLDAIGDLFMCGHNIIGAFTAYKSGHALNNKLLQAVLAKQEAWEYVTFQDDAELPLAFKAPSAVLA
The data set is described as follows: Inhibition of Escherichia coli LpxC.

For data set [12], the system named is Pseudomonas aeruginosa. The data set is described as follows: Antibacterial activity against Pseudomonas aeruginosa C53. The class given is functional.

Turning to `CC[C@H](O)[C@@](C)(OCc1ccc(-c2ccccc2)cc1)C(=O)NO`, the IC50 in [1] was determined as 0.008 µM. The MIC in data set [2] was 3 µg/mL (≈ 9.11 µM); in data set [3] it was more than 64 µg/mL.

For the compound `CC(C)[C@H](O)[C@](C)(OCc1ccc(-c2ccccc2)cc1)C(=O)NO`, the figures for the MIC in [2] and in [3] were 32 µg/mL (≈ 93.2 µM) and more than 64 µg/mL, respectively.

For `Cc1cc([C@H](O)[C@](C)(OCc2ccc(-c3ccccc3)cc2)C(=O)NO)no1`, in [4], the half-life was determined as 0.333 h. Also, the MIC was 0.015 µg/mL (≈ 0.0392 µM) in data set [2] and 1.75 µg/mL (≈ 4.58 µM) in data set [3]. The solubility kinetic in [5] amounted to 59 µM (≈ 22.6 µg/mL).

For `CC(CO)(OCc1ccc(-c2ccccc2)cc1)C(=O)NO` (racemic), the MIC in data set [6] is more than 64 µg/mL; in data set [2] it was 4 µg/mL (≈ 13.3 µM); in data set [3] it was more than 64 µg/mL. The concentration for half-maximal inhibition (IC50) in data set [1] stood at 0.022 µM. Also, the half-life in data set [4] worked out at 6 h. Further, the solubility kinetic in data set [7] is 200 µM (≈ 60.3 µg/mL).

`C[C@@](OCc1ccc(-c2ccccc2)cc1)(C(=O)NO)[C@@H](O)c1ncco1`: the IC50 in [1] is 0.003 µM. Further, the figures for the MIC in [2] and in data set [3] were 0.25 µg/mL (≈ 0.679 µM) and 8 µg/mL (≈ 21.7 µM), respectively.

`CCc1ccc(-c2ccc(C(=O)N[C@H](C(=O)NO)[C@@H](C)O)cc2)cc1` returned an MIC in data set [6] of 4 µg/mL (≈ 11.7 µM). In addition, the IC50 in data set [1] stood at 0.008 µM. The values for the half-life in data set [4] and in [8] were 3.83 h and 0.75 h, respectively.

As to `C[C@@](OCc1ccc(-c2ccccc2)cc1)(C(=O)NO)[C@@H](O)c1cc(CO)on1`, the half-maximal inhibitory concentration (IC50) in data set [1] turned out to be 0.0006 µM. Besides, in [4], the half-life amounted to 2.33 h. Also, the figures for the minimum inhibitory concentration (MIC) in data set [2] and in [3] were 0.015 µg/mL (≈ 0.0376 µM) and 1 µg/mL (≈ 2.51 µM), respectively. Further, in [5], the solubility kinetic was determined as 130 µM (≈ 51.8 µg/mL). In addition, the ED50 in [9] came to 37 mg/kg. In addition, the outcome in [10] was inactive.

In data set [1], `CC(CO)(COc1ccc(-c2ccccc2)cc1)C(=O)NO` (configuration not stated) had a half-maximal inhibitory concentration (IC50) of 0.39 µM. Moreover, the half-life in [4] amounted to 1.43 h. Further, the solubility kinetic in data set [7] was determined as 26 µM (≈ 7.83 µg/mL).

Compound `CCCC[C@H](O)[C@](C)(OCc1ccc(-c2ccccc2)cc1)C(=O)NO` returned a half-maximal inhibitory concentration (IC50) in [1] of 0.09 µM.

Turning to `CC(CO)(NC(=O)c1ccc(-c2ccccc2)cc1)C(=O)NO` (racemic), the MIC in [6] is more than 64 µg/mL; in data set [2], 32 µg/mL (≈ 102 µM); in data set [3], more than 64 µg/mL. This compound also registered an IC50 in data set [1] of 0.286 µM. Besides, the half-life in [4] was 3.83 h; in data set [8], 3.67 h. In addition, in data set [7], the solubility kinetic is 200 µM (≈ 62.9 µg/mL).

On to `C[C@H](O)[C@](C)(OCc1ccc(-c2ccccc2)cc1)C(=O)NO`, for which the MIC in data set [2] came to 0.5 µg/mL (≈ 1.59 µM); in [3] it was 32 µg/mL (≈ 101 µM).

In data set [1], `C[C@@](OCc1ccc(-c2ccccc2)cc1)(C(=O)NO)[C@@H](O)c1ccon1` came in with an IC50 of 0.0004 µM. Further, the MIC in [2] amounted to 0.06 µg/mL (≈ 0.163 µM); in [3], 6 µg/mL (≈ 16.3 µM).

Compound `C[C@](OCc1ccc(-c2ccccc2)cc1)(C(=O)NO)[C@@H](O)c1ccccn1` showed an IC50 in data set [1] of 0.015 µM. Further, the minimal inhibitory concentration (MIC) worked out at 0.25 µg/mL (≈ 0.661 µM) in data set [2] and 32 µg/mL (≈ 84.6 µM) in data set [3].

With `CCOCC[C@H](O)[C@](C)(OCc1ccc(-c2ccccc2)cc1)C(=O)NO`, the IC50 in data set [1] was 0.028 µM. In addition, the MIC in [2] and in data set [3] was more than 64 µg/mL in each case.

Consider `Cn1nncc1[C@H](O)[C@](C)(OCc1ccc(-c2ccccc2)cc1)C(=O)NO`, for which inhibition in [1] was half-maximal at 0.026 µM (IC50). The MIC in [2] is 2 µg/mL (≈ 5.23 µM); in data set [3], more than 64 µg/mL.

On to `C[C@@](OCc1ccc(-c2ccccc2)cc1)(C(=O)NO)[C@@H](O)c1ccn[nH]1`, for which the IC50 in data set [1] is 0.0004 µM. Besides, the values for the minimum inhibitory concentration (MIC) in [2] and in data set [3] were 0.25 µg/mL (≈ 0.68 µM) and 4 µg/mL (≈ 10.9 µM), respectively.

As for `O=C(NO)[C@@H](Cc1ccc2ccccc2c1)NS(=O)(=O)c1ccc2ccccc2c1`, in data set [11], the Ki amounted to 0.02 µM. Besides, in data set [12], the MIC worked out at 4 µg/mL (≈ 9.51 µM).

Consider `CC(C)(OCc1ccc(-c2ccccc2)cc1)C(=O)NO`, for which, in data set [6], the minimum inhibitory concentration (MIC) is more than 64 µg/mL. Besides, inhibition in data set [1] was half-maximal at 0.311 µM (IC50).

In data set [1], `C[C@@](OCc1ccc(-c2ccccc2)cc1)(C(=O)NO)[C@@H](O)c1ccccc1` returned an IC50 of 0.051 µM. For the same compound, the results for the MIC in data set [2] and in data set [3] were 8 µg/mL (≈ 21.2 µM) and more than 64 µg/mL, respectively.

In data set [1], `C[C@@](OCc1ccc(-c2ccccc2)cc1)(C(=O)NO)[C@@H](O)c1ccno1` yielded an IC50 of 0.0008 µM. Moreover, the minimal inhibitory concentration (MIC) in data set [2] came to 0.125 µg/mL (≈ 0.339 µM); in [3], 8 µg/mL (≈ 21.7 µM).

Consider `CC(CO)(CCc1ccc(-c2ccccc2)cc1)C(=O)NO` (configuration not stated), for which, in [1], 0.0033 µM corresponded to half-maximal inhibition (IC50). The half-life in [4] was found to be 1.2 h. Besides, the results for the minimal inhibitory concentration (MIC) in data set [2] and in data set [3] were 0.5 µg/mL (≈ 1.67 µM) and 16 µg/mL (≈ 53.4 µM), respectively. In addition, the solubility kinetic in data set [7] worked out at 89 µM (≈ 26.6 µg/mL).

On to `CC(C)C[C@H](O)[C@](C)(OCc1ccc(-c2ccccc2)cc1)C(=O)NO`, for which the figures for the MIC in data set [2] and in data set [3] were 64 µg/mL (≈ 179 µM) and more than 64 µg/mL, respectively.

Consider `C[C@@H](O)[C@](C)(OCc1ccc(-c2ccccc2)cc1)C(=O)NO`, for which half-maximal inhibition in [1] (IC50) required 0.004 µM. Besides, the MIC in data set [2] was 0.75 µg/mL (≈ 2.38 µM); in data set [3] it was 64 µg/mL (≈ 203 µM).

In data set [1], `C[C@@](OCc1ccc(-c2ccccc2)cc1)(C(=O)NO)[C@@H](O)c1c[nH]cn1` had an IC50 of 0.0008 µM. Also, the minimal inhibitory concentration (MIC) in [2] worked out at 0.125 µg/mL (≈ 0.34 µM); in data set [3], 8 µg/mL (≈ 21.8 µM).

Consider `Cn1ccnc1[C@H](O)[C@](C)(OCc1ccc(-c2ccccc2)cc1)C(=O)NO`, for which the IC50 in data set [1] worked out at 0.025 µM. The MIC in data set [2] came to 0.19 µg/mL (≈ 0.498 µM); in [3] it was 33 µg/mL (≈ 86.5 µM).

In turn, `C[C@@H](N)[C@@H](NC(=O)N1CCN(c2ccc(C#Cc3ccccc3)cc2)CC1)C(=O)NO` came in with a minimum inhibitory concentration (MIC) in data set [6] of 12.5 µg/mL (≈ 29.7 µM).

In [1], `C[C@@](OCc1ccc(-c2ccccc2)cc1)(C(=O)NO)[C@@H](O)c1cccnc1` came in with an IC50 of 0.018 µM. The values for the minimum inhibitory concentration (MIC) in [2] and in data set [3] were 0.5 µg/mL (≈ 1.32 µM) and 32 µg/mL (≈ 84.6 µM), respectively.
